Laboratory results as given in ChEMBL document CHEMBL5352508, “Discovery and Structure-Based Design of Inhibitors of the WD Repeat-Containing Protein 5 (WDR5)-MYC Interaction” (J Med Chem, 2023).
Calls of active or inactive are those of the source. The rule behind the calls is not given here.

Legend:
WDR5-MYC [1] = target: T1, WDR5-MYC (Homo sapiens, UniProt P61964); experiment: Inhibition of N-terminal his-tagged WDR5 (1 to 334 residues) (unknown origin)/Biotin tagged Myc (256-268 residues) (unknown origin) interaction measured after 1 hrs by HTRF assay; assay type: protein assay
Ramos = experiment: Antiproliferative activity against human Ramos cells assessed as cell growth inhibition measured after 72 hrs by CellTier-Glo assay; assay type: functional
[2] = target: T2, WD repeat-containing protein 5 (Homo sapiens, UniProt P61964); experiment: Inhibition of N-terminal his-tagged WDR5 (1 to 334 residues) (unknown origin) measured after 90 mins by HTRF assay
WDR5-MYC [3] = target: T1, WDR5-MYC; experiment: Inhibition of WDR5 (unknown origin)/MYC (unknown origin) interaction; assay type: protein assay
HL-60 [4] = experiment: Downregulation of RPL35 gene expression in human HL-60 cells measured after 24 hrs by RT-qPCR assay; assay type: functional, cell-based; settings: dose 3-10 µM
[5] = target: T2, WD repeat-containing protein 5; experiment: Inhibition of N-terminal his-tagged WDR5 (1 to 334 residues) (unknown origin) measured after 90 mins by HTRF assay relative to control
[6] = target: T2, WD repeat-containing protein 5; experiment: Inhibition of N-terminal his-tagged WDR5 (1 to 334 residues) (unknown origin) measured after 30 mins by HTRF assay relative to control
NCI-H1650 = experiment: Antiproliferative activity against human NCI-H1650 cells assessed as cell growth inhibition measured after 72 hrs by CellTier-Glo assay; assay type: functional
HL-60 [7] = experiment: Downregulation of RPL37A gene expression in human HL-60 cells measured after 24 hrs by RT-qPCR assay; assay type: functional, cell-based; settings: dose 3-10 µM
HL-60 [8] = experiment: Downregulation of RPL17 gene expression in human HL-60 cells measured after 24 hrs by RT-qPCR assay; assay type: functional, cell-based; settings: dose 3-10 µM
HL-60 [9] = experiment: Effect on MCM4 mRNA expression in human HL-60 cells measured after 24 hrs by RT-qPCR assay; assay type: functional, cell-based
[10] = target: T2, WD repeat-containing protein 5; experiment: Inhibition of N-terminal his-tagged WDR5 (1 to 334 residues) (unknown origin) measured after 360 mins by HTRF assay relative to control
NB-4 = experiment: Antiproliferative activity against human NB4 cells assessed as cell growth inhibition measured after 72 hrs by CellTier-Glo assay; assay type: functional
NCI-H520 = experiment: Antiproliferative activity against human NCI-H520 cells assessed as cell growth inhibition measured after 72 hrs by CellTier-Glo assay; assay type: functional
HL-60 [11] = experiment: Effect on MCM10 mRNA expression in human HL-60 cells measured after 24 hrs by RT-qPCR assay; assay type: functional, cell-based
[12] = target: T2, WD repeat-containing protein 5; experiment: Inhibition of N-terminal his-tagged WDR5 (1 to 334 residues) (unknown origin) measured after 180 mins by HTRF assay
[13] = target: T3, Histone-lysine N-methyltransferase 2A/WDR5 (Homo sapiens) (UniProt P61964+Q03164); experiment: Inhibition of WDR5 (unknown origin)/MLL (unknown origin) interaction by NanoBiT assay; assay type: protein assay
HEK293T = experiment: Inhibition of RBBP5/flag-tagged WDR5 interaction in HEK293T cells overexpressing flag-tagged WDR5 upto 30 uM incubated for 6 hrs by coimmunoprecipitation assay; assay type: cell-based; settings: Homo sapiens
WDR5-MYC (Homo sapiens) = WDR5-MYC (Homo sapiens) (UniProt P61964+P01106); experiment: Inhibition of flag-tagged WDR5/endogenous MYC interaction in HEK293T cells overexpressing flag tagged WDR5 incubated for 6 hrs by coimmunoprecipitation assay; assay type: cell-based; settings: dose 5-30 µM
WDR5-MYC [14] = target: T1, WDR5-MYC; experiment: Inhibition of his-tagged WDR5/flag-tagged MYC interaction overexpressed in HEK293T cells incubated for 5 hrs; assay type: cell-based
HL-60 [15] = experiment: Effect on Cdc20 mRNA expression in human HL-60 cells measured after 24 hrs by RT-qPCR assay; assay type: functional, cell-based
[16] = Microsomal stability in mouse liver microsome assessed as intrinsic clearance; assay type: ADME; settings: liver microsomes, read-out: CLH
HL-60 [17] = experiment: Antiproliferative activity against human HL-60 cells assessed as cell growth inhibition measured after 72 hrs by CellTier-Glo assay; assay type: functional
[18] = target: T2, WD repeat-containing protein 5; experiment: Inhibition of N-terminal his-tagged WDR5 (1 to 334 residues) (unknown origin) measured after 10 mins by HTRF assay
[19] = target: T3, Histone-lysine N-methyltransferase 2A/WDR5 (Homo sapiens); experiment: Inhibition of MLL/flag-tagged WDR5 interaction in HEK293T cells overexpressing flag-tagged WDR5 upto 30 uM incubated for 6 hrs by coimmunoprecipitation assay; assay type: cell-based
[20] = target: T2, WD repeat-containing protein 5; experiment: Inhibition of N-terminal his-tagged WDR5 (1 to 334 residues) (unknown origin) measured after 10 mins by HTRF assay relative to control
[21] = Apparent permeability of the compound in dog MDCKII-LE cells measured upto 1.5 hrs; assay type: ADME, cell-based, Canis lupus familiaris; settings: MDCK
[22] = target: T2, WD repeat-containing protein 5; experiment: Inhibition of N-terminal his-tagged WDR5 (1 to 334 residues) (unknown origin) measured after 30 mins by HTRF assay
[23] = target: T2, WD repeat-containing protein 5; experiment: Inhibition of N-terminal his-tagged WDR5 (1 to 334 residues) (unknown origin) measured after 180 mins by HTRF assay relative to control
[24] = target: T2, WD repeat-containing protein 5; experiment: Inhibition of N-terminal his-tagged WDR5 (1 to 334 residues) (unknown origin) measured after 360 mins by HTRF assay
SHP77 = experiment: Antiproliferative activity against human SHP77 cells assessed as cell growth inhibition measured after 72 hrs by CellTier-Glo assay; assay type: functional
Daudi = experiment: Antiproliferative activity against human Daudi cells assessed as cell growth inhibition measured after 72 hrs by CellTier-Glo assay; assay type: functional
HL-60 [25] = experiment: Downregulation of RPL23 gene expression in human HL-60 cells measured after 24 hrs by RT-qPCR assay; assay type: functional, cell-based; settings: dose 3-10 µM
COR-L279 = experiment: Antiproliferative activity against human COR-L279 cells assessed as cell growth inhibition measured after 72 hrs by CellTier-Glo assay; assay type: functional
HL-60 [26] = experiment: Effect on AURKB mRNA expression in human HL-60 cells measured after 24 hrs by RT-qPCR assay; assay type: functional, cell-based

Cc1cc(=O)c(C(=O)NCc2c(F)cc(N3CCCC(F)(F)C3)cc2F)nn1-c1ccccc1
IC50 (WDR5-MYC [1]): 0.82 µM

Cc1cc(=O)c(C(=O)NCc2c(F)cc(N3CC[C@@H](F)C3)cc2F)nn1-c1cccc(CC(N)=O)c1
IC50 (WDR5-MYC [1]): 3.15 µM

Cc1cc(=O)c(C(=O)NCc2c(F)cc(N3CC[C@@H](F)C3)cc2F)nn1-c1cccc(C(N)=O)c1
IC50 (WDR5-MYC [1]): 1.93 µM

Cc1cc(=O)c(C(=O)NCc2c(F)cc(-c3ccccc3)cc2F)nn1-c1cccnc1
IC50 (WDR5-MYC [1]): 25.4 µM

Cc1cc(=O)c(C(=O)NCc2c(F)cc(C3=CC(=O)CCC3)cc2F)nn1-c1ccccc1
IC50 (WDR5-MYC [1]): 1.58 µM

Cc1cc(=O)c(C(=O)NCc2c(F)cc(N3CC[C@@H](O)C3)cc2F)nn1-c1ccccc1
IC50 (WDR5-MYC [1]): 3.72 µM

Cc1cc(=O)c(C(=O)NCc2c(F)cc(-c3cncnc3)cc2F)nn1-c1ccccc1
IC50 (WDR5-MYC [1]): 13.8 µM

Cc1cc(=O)c(C(=O)NCc2c(F)cc(-c3cccc(S(=O)(=O)F)c3)cc2F)nn1-c1ccccc1
GI50 (Ramos): 4.3 µM
IC50 [2]: 0.3 µM
IC50 (WDR5-MYC [3]): 5.8 µM
Activity (HL-60 [4]): Dose-Dependent Effect
inhibition [5]: 78.5%
inhibition [6]: 64%
GI50 (NCI-H1650): 22.6 µM
Activity (HL-60 [7]): Dose-Dependent Effect
Activity (HL-60 [8]): Dose-Dependent Effect
Activity (HL-60 [9]): inactive
inhibition [10]: 91.9%
GI50 (NB-4): 7.1 µM
GI50 (NCI-H520): 9.4 µM
Activity (HL-60 [11]): inactive
IC50 [12]: 0.17 µM
inhibition [13]: inactive
inhibition (HEK293T): inactive
inhibition (WDR5-MYC (Homo sapiens)): Dose-Dependent Effect
IC50 (WDR5-MYC [14]): 4.8 µM
Activity (HL-60 [15]): inactive
microsomal CLint [16]: 46.9 µL/min/mg
GI50 (HL-60 [17]): 4.6 µM
IC50 (WDR5-MYC [1]): 0.39 µM
IC50 [18]: 2.09 µM
inhibition [19]: inactive
inhibition [20]: 59.3%
Papp at 1.5 h [21]: 1.77 ×10⁻⁶ cm/s
IC50 [22]: 0.79 µM
inhibition [23]: 88.5%
IC50 [24]: 0.1 µM
GI50 (SHP77): 16.6 µM
GI50 (Daudi): 15.4 µM
Activity (HL-60 [25]): Dose-Dependent Effect
GI50 (COR-L279): 4.2 µM
Activity (HL-60 [26]): inactive

Cc1cc(=O)c(O)c(C(=O)NCc2ccc(-c3ccccc3C#N)cc2)o1
IC50 (WDR5-MYC [1]): 13.9 µM

Cc1cc(=O)c(C(=O)NCc2c(F)cc(-c3cccnc3)cc2F)nn1-c1ccccc1
IC50 (WDR5-MYC [1]): 4.45 µM

Cc1cc(=O)c(C(=O)NCc2c(F)cc(-c3cccc(S(=O)(=O)O)c3)cc2F)nn1-c1ccccc1
IC50 (WDR5-MYC [1]): 0.91 µM

Cc1cc(=O)c(C(=O)NCc2c(F)cc(-c3cccc(C(=O)O)c3)cc2F)nn1-c1ccccc1
IC50 (WDR5-MYC [1]): 2.48 µM

Cc1cc(=O)c(C(=O)NCc2c(F)cc(-c3ccccc3)cc2F)nn1-c1ccccc1
IC50 (WDR5-MYC [1]): 15.8 µM

Cc1cc(=O)c(C(=O)NCc2c(F)cc(N3CC[C@H](O)C3)cc2F)nn1-c1ccccc1
IC50 (WDR5-MYC [1]): 5.67 µM
